According to patent US11564913B2, “Compositions and methods for treating cancer” (Children's Hospital Medical Center, priority 2019, dated 2023):

Key:
[1] = test system: MCF7, T47D, and MDA-MB-231 cells; test: Spheroid formation in ultra-low attachment plates, live cell count; assay type: cell-based; settings: 0-3 μM, 5 days
Protocol: FIG. 6: IODVA1 inhibits cell-substratum and cell-cell interactions. (A) IODVA1 impedes spreading of MCF7 and MDA-MB-231 cells on fibronectin. MCF7, T47D, and MDA-MB-231 cells were incubated on fibronectin coated coverslips for 10 min, then further incubated with the indicated concentrations of IODVA1 for 30 min in serum-free media, fixed and observed by bright field microscopy. Areas of single cells were calculated from 6 random fields (no less than 300 cells total per treatment group). Results shown are mean±s.e.m. of a single experiment and are representative of three independent experiments. (B) Effects of IODVA1 treatment on spheroid formation in MCF10A, MCF7, T47D, and MDA-MB-231 cells. […] Aggregates and spheroids were dissociated with accutase and trituration, and the number of live cells was determined by trypan blue exclusion. […]
For the spheroid formation in the ultra-low attachment plates, MCF7, T47D, and MDA-MB-231 (5,000 cells) were incubated in complete media with IODVA1 at 0-3 μM for 5 days. Aggregates and spheroids were dissociated with Accutase and live cells were counted using trypan blue exclusion.
Spheroids were formed by the hanging drop method or using ultra-low attachment (ULA) plates (Corning). […] Spheroid formation was monitored daily and imaged using EVOS microscope (Life Technologies). […]

[2] = test system: Vav3−/− p190-BCR-ABL1 BM leukemic cells expressing full-length Vav3; test: Vav3 rescue, cell cycle analysis; assay type: cell-based, murine; settings: 10 μM, 18 h
From the text: (§1) FIG. 15: Expression of transgenic Vav3 re-sensitizes Vav3-deficient cells to IODVA1. (A) Vav3 domain structure, calponin-homology (CH), acidic region (Ac), Dbl-homology (DH), pleckstrin-homology (PH), zinc finger (ZF), Src-homology 2 and 3 (SH2/SH3). (B) Representative histogram data of the cell cycle analysis of wild-type (Vav3^+/+) and Vav3-deficient (Vav3^−/−) p190-BCR-ABL1 leukemic bone marrow cells expressing empty vector, full-length Vav3 or ΔCH mutant and treated with vehicle control (black) or IODVA1 at 5 (red) or 10 μM (dark grey) for 18 h. (C) Quantification of the average number of colonies made by bone marrow wild-type and Vav3^−/− p190-BCR-ABL1 leukemic bone marrow cells expressing empty vector, full-length Vav3 or ΔCH mutant and treated with vehicle control (black) or IODVA1 at 1 (light salmon), 5 (red) and 10 μM (dark grey). *** p≤0.001.
(§2) Next, we reasoned that if IODVA1 targets Vav3, rescuing Vav3^−/− leukemic cells by expressing exogenous Vav3 should re-sensitize those cells to IODVA1. We expressed full-length Vav3 or the dominant active ΔCH-mutant (FIG. 15A) in Vav3^−/− p190-BCR-ABL1-transformed murine bone marrow leukemic cells and analyzed changes in cell cycle 18 h post-treatment with vehicle control or IODVA1 (FIG. 15B). Expressing full-length Vav3 but not the empty vector re-sensitized the Vav3^−/− BM leukemic cells to IODVA1 as shown by a 5.8-fold increase in apoptosis (p=0.0005) and a 15% decrease (p=0.08) in cells in the S-phase at 10 μM.
(§3) For Vav3 rescue experiments, low density bone marrow cells from wild-type ([…]) or Vav3^−/− mice were transduced with bicistronic retroviral vector encoding p190 BCR-ABL1-IRES-YFP (yellow fluorescent protein) and YFP^+ cells were sorted 48 h post-transduction. […] Cell cycle was analyzed at 18 h post BrdU incorporation.
(§4) Cell cycle was analyzed by using in vitro incorporation of 5-Bromo-2-deoxyuridine using Brdu Flow kit (BD Pharmingen, Cat #552598). […] DNAse treatment was done according to the instructions and stained with anti BrdU and apoptosis was analyzed by 7-AAD staining through flow cytometry analysis.

[3] = test system: Vav3−/− p190-BCR-ABL1 BM leukemic cells expressing ΔCH-mutant Vav3; test: Vav3 rescue, cell cycle analysis; assay type: cell-based, murine; settings: even at the highest concentration
From the text: as §1, §2, §3, §4

OC1(c2ccccn2)N=C(Nc2nc3ccccc3[nH]2)N=C1c1ccccn1 (stereo not shown) [IODVA1, (Z)-2-((1H-benzo[d]imidazol-2-yl)imino)-4,5-di(pyridin-2-yl)-2,5-dihydro-1H-imidazol-5-ol]
number of live cells in a spheroid [1]: significantly decreased | increase in apoptosis ([2]; p=0.0005): 5.8 fold | decrease in cells in the S-phase ([2]; p=0.08): 15% | re-sensitization to IODVA1 [3]: did not re-sensitize
